Row | melting point | SMILES
1 | 198 °C | CN(C)CCNS(=O)(=O)c1cc(NC(=O)c2cnn3c(C(F)(F)F)cc(-c4ccc(C(F)(F)F)cc4)nc23)c(Cl)s1
2 | 293 to 294 °C | Cc1nc(NC(=O)c2cnn3c(C4CC4)cc(-c4ccc(Cl)cc4)nc23)sc1S(=O)(=O)NC(C)(C)CO
3 | 156 to 160 °C | Cc1ccc(-c2nc(Cc3cc4cc(CO)ccc4o3)c(C)o2)cc1
4 | 175 to 177 °C | CCC1c2cccn2-c2ccc(F)cc2N1S(=O)(=O)c1ccc(O)c(C)c1 (configuration not stated)
5 | 164 to 166 °C | CCn1cc(C(=O)O)c(=O)c2cc(F)c(-c3csc(CNC)n3)c(OC)c21
6 | 227 to 229 °C | O=C(O)c1cc(-c2ccc([N+](=O)[O-])cc2)c(-c2ccc(F)cc2)s1
7 | 109 to 111 °C | COc1cc2c(cc1OC)CN(C(=O)Cc1ccc(-c3ccccc3)cc1)CC2
8 | 164 to 166 °C | C#CCOc1cc(-n2c(C#N)c(C#N)n(CCC)c2=O)c(F)cc1Cl
9 | 157 °C | CC(=O)OC1CSC(Oc2ccc(-c3ccc(CO)cc3)nc2)C(OC(C)=O)C1OC(C)=O (configuration not stated)
10 | 123 to 124 °C | COc1cc(COc2nn(C)cc2C=O)ccc1OCc1nc(-c2ccccc2)oc1C
11 | 126 to 128 °C | Clc1ccc(C(=Cn2cncn2)c2ccc(Cl)cc2)cc1
12 | 91 to 92 °C | COC(=O)CCc1cc2cc(C#N)ccc2o1
13 | 179 °C | CS(=O)(=O)c1cc(C(=O)O)c(NCc2ccccc2)cc1Cl
14 | 112 to 114 °C | CCOC(=O)/C=C/c1ccc(Cn2ccnc2)c(Cl)c1
15 | 163 to 165 °C | CN(C)C(=O)CCNC(=O)c1ccc(-c2ccc3nnn(Cc4ccc5ncccc5c4)c3n2)cc1F
16 | 145 °C | CC(C)(C)OC(=O)CN(C(=O)CN1C(=O)c2ccccc2C1=O)c1ccccc1-c1ccccc1
17 | 260 to 261 °C | Cc1cc(NC(=O)c2c(Cl)cccc2Cl)c2nccc(-n3ccnc3)c2c1
18 | 280 to 284 °C | Cc1cc(Cl)ncc1C(=O)Nc1ccc2c(c1)-c1c(c(C(N)=O)nn1-c1ccc(F)cc1)CC2
19 | 68.5 to 70 °C | CCOC(=O)C(=O)c1ccc(OCC(=O)c2c(C)cc(C)cc2C)cc1
20 | 181 to 182 °C | CCOC(=O)c1ccc(-c2ccnc(Nc3cc(OC)c(OC)c(OC)c3)n2)cc1
21 | 167 to 168 °C | Cc1oc(-c2ccccc2)nc1CCOc1ccc(C[C@H](OC(C)C)C(=O)O)c2sccc12
22 | 205 °C | CCSc1c(CO)nc(C)n1Cc1ccc(-c2ccccc2C(=O)O)cc1
23 | 222 to 224 °C | CCOC(=O)Nc1cc2c(cn1)[nH]c1ccccc12
24 | 141 to 143 °C | CCC(CC)c1ccc(CO)c2nc(Oc3c(C)cc(Cl)cc3Cl)n(C)c12

Row | melting point | SMILES
25 | 97 to 99 °C | CN(Cc1ccccc1)c1nc2c(cc1C#N)C(=O)CC(C)(C)C2
26 | 191 to 192 °C | Cc1cccc(-c2nc3ccc(Cl)nn3c2-c2ccnc(NC3CCCCC3)c2)c1
27 | 53 to 56 °C | CC(Oc1ccc(Oc2ccc(C(F)(F)F)cc2)cc1)C(=O)OCC#N (configuration not stated)
28 | 221 to 223 °C | Nc1ccc(Sc2c(NCC3CC3)cc(C(=O)O)cc2S(N)(=O)=O)cc1
29 | 110 to 112 °C | Cc1ccc(-c2cc(-c3ccccc3)c(-c3ccccc3)s2)cc1
30 | 181 to 185 °C | COc1ccc(Nc2ccc(Nc3nc(C)nc4cc(-c5ccccc5)sc34)cc2)cc1
31 | 52.5 to 53 °C | COCCOc1ccc(COC(C)=O)c(Oc2ncc(C(F)(F)F)cc2Cl)c1
32 | 96 to 98 °C | COc1ccc(CS[C@H]2C[C@@H](C(=O)O)N(C(=O)OCc3ccc([N+](=O)[O-])cc3)C2)cc1
33 | 125 °C | CCC=Cc1nc2ccccc2n1Cc1ccc(C#N)cc1
34 | 227 to 230 °C | O=C(NC(=O)c1c(Cl)cccc1Cl)Nc1ccc(F)c(C(F)(F)F)c1Cl
35 | 178 to 180 °C | Cc1oc(-c2ccc(F)cc2)nc1COc1cccc2cc(NS(=O)(=O)C(F)(F)F)ccc12
36 | 209 to 210 °C | Cc1ccn(-c2ccc(C)c(C(=O)N3Cc4cccnc4Nc4ccccc43)c2)n1
37 | 154 to 156 °C | CC(c1oc2ccccc2c(=O)c1-c1cccc(F)c1)n1nc(-c2csc(CO)c2)c2c(N)ncnc21 (configuration not stated)
38 | 228 to 230 °C | N#Cc1cccc(NC(=O)NCc2cccc3c2C(=O)N(C2CCC(=O)NC2=O)C3=O)c1 (configuration not stated)
39 | 188 to 190 °C | CNC(=S)NCc1nc(C(C)C)c(Sc2cc(Cl)cc(Cl)c2)n1C
40 | 103 to 104 °C | Cc1ccc(-c2nc(C)cc(Cl)n2)cc1
41 | 96 °C | COC(=O)c1ccc(-c2ccccn2)cc1
42 | 258 °C | Cn1cncc1C(N)(c1ccc([N+](=O)[O-])cc1)c1ccc2c(c1)c(-c1cccc(Cl)c1)cc(=O)n2C (configuration not stated)
43 | 105 to 107 °C | CCOCn1c(Sc2ccc(Cl)c(Cl)c2)c(Br)c(C#N)c1-c1ccc(Cl)cc1
44 | 45 to 95 °C | C=C(Sc1ccc(Br)cc1)S(=O)(=O)c1ccc(Cl)cc1
45 | 99 to 102 °C | O=C(CCCC(Cl)c1ccc(Cl)cc1)Nc1ccccc1 (configuration not stated)
46 | 154 to 155 °C | COc1ccc(S(=O)(=O)NC(C)c2ccccc2-c2ccc(F)cc2F)cc1 (configuration not stated)
47 | 220 to 221 °C | CCCc1nc2cccc(C(O)=S)c2n1Cc1ccc(-c2ccccc2-c2nc(=O)o[nH]2)cc1

More lines, now with the values behind:

Row | SMILES | melting point
48 | CCc1cnc(N2CCN(C(=O)c3ccccc3NC3=c4ccccc4=NCN3c3ccccc3)CC2)nc1 | 204 to 205 °C
49 | CC1(C)Oc2ccc(C(=O)O)cc2S1 | 124 to 125 °C
50 | COc1cc(OC)nc(Oc2ccc3c(c2C(=O)O)OCO3)n1 | 198 to 201 °C
51 | CC(C)NC(=O)Nc1ccnc(Cl)c1 | 142 to 146 °C
52 | CO[C@H]1CC[C@H](N(C)C(=O)c2ccc3nonc3c2)CC1 | 143 to 144 °C
53 | CCC(C)OC(=O)C(C(=O)O)=C1SCS1 (configuration not stated) | 80 to 82 °C
54 | O=C(C(CCO)N1CCCC1=O)N1CCOCC1 (configuration not stated) | 105 to 106 °C
55 | COc1ccc(C=CC(=O)C=Cc2ccc(OC)cc2OC)c(OC)c1 | 138 to 140 °C
56 | CC(C)(C(=O)c1ccccc1OCC(=O)O)N1CCN(c2ccncc2)CC1 | 278 to 279 °C
57 | Cc1ccc2[nH]c3c(C(=O)O)cccc3c2c1Cl | 305 °C
58 | COc1cc(CN(C)c2ncnc3c(N4CCOCC4)nc(N4CCC(N(C)C)CC4)nc23)cc2ccccc12 | 130 °C
59 | Cc1cc(C)cc(-c2cc3cnc(N)nc3nc2N)c1 | 298 to 302 °C
60 | CC(=O)NC[C@H]1CN(c2ccc(N3CCC(O)(CC(N)=O)CC3)c(F)c2)C(=O)O1 | 208 to 210 °C
61 | Cc1cc(C)c(N2C(=N)N(c3c(C)cccc3C)CC2C)c(C)c1 (configuration not stated) | 128 to 130 °C
62 | Oc1c(Br)cnc2ccccc12 | 286 to 287 °C
63 | O=C(NC(CO)(CO)CO)c1cc2ccnc(Cl)c2[nH]1 | 218 to 220 °C
64 | O=c1c(O)c(-c2ccoc2)oc2ccccc12 | 165 to 166 °C
65 | COc1ccc(OC)c2c1C(=O)OC2=O | 265 to 268 °C
66 | CC(=O)OC1CCC2(C)C(CCC3=C4C(=O)CC(C(C)CCC=O)C4(C)CCC32)C1 (configuration not stated) | 162 to 164 °C
67 | CNCc1c(C)c([N+](=O)[O-])cc2[nH]c(=O)c(=O)[nH]c12 | 260 to 261 °C
68 | CC(C)N(C(=O)CO)c1ccccc1 | 39 °C
69 | CC[C@H](C)[C@H](NC(=O)O[C@@H](CC(C)C)C(=O)OCc1ccccc1)C(=O)NC(C)C | 90 to 92 °C
70 | CCOC(=O)CN(Cc1cc(F)ccc1[N+](=O)[O-])C(=O)C(F)(F)F | 60 to 63 °C
71 | Cn1cc(Br)cc(Nc2ccc(N3CCN(CCF)CC3)cn2)c1=O | 141 to 143 °C
72 | CCCCCCCC(=O)OC1CC(=O)NC1=O (configuration not stated) | 60.5 to 61 °C

Row | SMILES | melting point
73 | NCc1ccn(-c2cc3c(cc2[N+](=O)[O-])[nH]c(=O)c(=O)n3CC(=O)O)c1 | > 270 °C
74 | NC(=O)CCC1CN(c2ccc3c(c2)OCC2CN(C(=O)CO)CCN32)C(=O)O1 (configuration not stated) | 115 to 118 °C
75 | O=C(O)c1ccccc1Oc1ccc(C(F)(F)F)cc1NS(=O)(=O)c1ccc(F)cc1 | 159 to 160 °C
76 | CC[C@H](C)[C@H](OCc1ccccc1)[C@H]1[C@H]([N+](=O)[O-])[C@@H]([C@@H](OCc2ccccc2)C(C)C)N[C@@H]1C(=O)O | 172 to 174 °C
77 | COc1ccc2c(c1)CCC1C2CCC2(C)C1CCC2N(C=O)CCC(C)C (configuration not stated) | 106 to 107 °C
78 | CCC(CC)c1nnc(NC)n(N)c1=O | 119 to 120 °C
79 | c1ccc2[nH]c(CN3CCN(c4nccs4)CC3)nc2c1 | 203 to 205 °C
80 | COc1ccc2cc(N3CCN(C4CCC(c5c[nH]c6ccc(F)cc56)CC4)CC3)ccc2c1 (configuration not stated) | 200 to 203 °C
81 | CCN(CC)c1ccc(NC(C)=O)c(C)c1 | 114 to 115 °C
82 | NC(=O)c1cccc(-c2cc(OC(=O)NC3CCCCC3)ccc2O)c1 | 128 to 130 °C
83 | CCc1c(Oc2cc(C)cc(C)c2)n(C/C=C/CO)c(=O)[nH]c1=O | 125 to 126 °C
84 | COC(=O)Cc1cc2c(s1)NC(=O)C(C)N=C2c1ccccc1Cl (configuration not stated) | 185 to 190 °C
85 | CC(C#CCOc1cccc(Oc2ccccc2)c1)N(O)C(N)=O (configuration not stated) | 98 to 100 °C
86 | Cc1nc(Cl)c(S(C)(=O)=O)c(Cl)n1 | 146 to 147 °C
87 | Nc1ccn(C2COC(CO)C2O)c(=O)n1 (configuration not stated) | 235 °C
88 | CC(=O)c1ccc2c(c1)Cc1ccc(C(C)=O)cc1-2 | 155 °C
89 | CN1CCCC(Cn2cc(-c3ccccc3)c(O)n2)C1 (configuration not stated) | 132 °C
90 | CC(=O)Nc1nc2ccccc2c2c(CC(C)C)n(C)nc12 | 130 to 131 °C
91 | Cc1ccc(C(NC2CCNCC2)(Oc2ccc(OCc3ccccc3)cc2)C(C)O)nc1 (configuration not stated) | 123 to 125 °C
92 | C1=C(CCc2c[nH]c3ccccc23)CCNC1 | 155 °C
93 | CCCCCCCCCCCCCCCCCC(=O)Nc1ccc(NC(=O)NS(=O)(=O)c2ccc(OC)cc2)cc1 | 188 °C
94 | Clc1csc(-c2cccnc2)n1 | 84 to 86 °C
95 | OC1CCc2oc3c(Cl)cc(Br)cc3c2C1 (single isomer, unassigned; (-)) | 236 to 240 °C
96 | CC(C)(C)c1ccc(Sc2cccc3c2C(=O)c2c(Sc4ccc(C(C)(C)C)cc4)ccc(Sc4ccc(C(C)(C)C)cc4)c2C3=O)cc1 | 228 to 229 °C
97 | COc1cc(OC2CCN(Cc3cccnc3)CC2)ccc1CC(=O)N1CCN(c2ccccc2C)CC1C(N)=O (configuration not stated) | 78 to 81 °C

— a melting point compilation (Tetko et al.; mined from patent text by program, amines drawn as free bases though some values may be those of a salt)
